From US9789211B2, “Methods and compositions for positron emission tomography myocardial perfusion imaging” (UNIVERSITY OF SOUTHERN CALIFORNIA, priority 2012, dated 2017)

Experiments:
[1] = system: H345 lung carcinoma cells; test: mitochondrial membrane potential-dependent cellular uptake with CCCP treatment; format: cell-based; settings: H345 cells incubated 10 min with CCCP before adding tracers
Experimental: Uptake kinetics of ^64Cu-Sar-TPP and 3H-TPP (standard) may be examined in H345 lung carcinoma cells. In brief, H345 cells will be harvested by trypsinization and washed twice with cold PBS buffer. Cells are counted and re-suspended in loading buffer at a concentration of 2×10^6 cells/mL. The cell suspension (0.5 mL) may be transferred to Eppendorf tubes and incubated at 37° C. for 60 min. An equal volume of loading solution containing 0.5-5 nM ^64Cu-Sar-TPP and 3H-TPP will be added. The sample may be centrifuged (800 rpm, 5 min) to terminate the uptake. Aliquots of the supernatant are then obtained and the remaining solution is aspirated. The radioactivity of the pellet and supernatant is counted together with standard solution ( 1/1,000) in a gamma counter. After completion of gamma counting, scintillation counting are performed after the complete decay of ^64Cu (two weeks). Cell uptake values of ^64Cu-Sar-TPP in H345 cells may be determined over incubation periods of 0.5, 1, 2, 4, and 24 h. […] The mitochondrial membrane potential-dependent cellular uptake of ^64Cu-Sar-TPP will be further assessed using the H345 cells treated with carbonyl cyanide m-chlorophenylhydrazone (CCCP). […] Only the ^64Cu-Sar-TPP probes that are sensitive towards CCCP will be evaluated in future investigation because this experiment supports the tracer uptakes are depend on mitochondria potential as we proposed above.

[2] = cited from earlier work
[3] = cited from earlier work; remark: listed apart in the source

N#CC(C#N)=NNc1cccc(Cl)c1 [CCCP, carbonyl cyanide m-chlorophenylhydrazone]
cell-associated activity of ^64Cu-Sar-TPP and 3H-TPP [1]: dose dependent decrease

[C-]#[N+]CC(C)(C)OC.[C-]#[N+]CC(C)(C)OC.[C-]#[N+]CC(C)(C)OC.[C-]#[N+]CC(C)(C)OC.[C-]#[N+]CC(C)(C)OC.[C-]#[N+]CC(C)(C)OC.[Tc] [^99mTc-sestamibi]
log P [2]: 1.1

^64/62Cu-pyruvaldehyde-bis(N4-methyl-thiosemicarbazone) [[^64/62Cu]-PTSM]
clearance from the blood pool ([3]; association with serum albumin): clears slowly | liver uptake ([3]; spillover into the inferior wall of myocardial): high liver uptake
